# Target: T1, Histone deacetylase (Plasmodium falciparum (isolate 3D7), UniProt Q7K6A1)
# T1 sequence (Q7K6A1 whole entry): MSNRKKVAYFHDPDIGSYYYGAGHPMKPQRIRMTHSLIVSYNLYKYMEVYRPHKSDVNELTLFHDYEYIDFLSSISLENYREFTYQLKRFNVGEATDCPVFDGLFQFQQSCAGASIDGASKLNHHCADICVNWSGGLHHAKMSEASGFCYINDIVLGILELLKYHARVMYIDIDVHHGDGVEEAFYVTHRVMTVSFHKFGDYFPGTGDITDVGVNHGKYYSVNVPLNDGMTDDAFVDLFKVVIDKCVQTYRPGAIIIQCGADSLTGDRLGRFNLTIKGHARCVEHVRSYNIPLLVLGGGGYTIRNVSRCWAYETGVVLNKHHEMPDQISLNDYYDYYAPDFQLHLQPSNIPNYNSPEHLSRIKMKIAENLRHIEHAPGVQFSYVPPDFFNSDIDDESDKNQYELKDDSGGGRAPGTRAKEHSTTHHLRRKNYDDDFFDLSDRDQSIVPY
# Assay: pfHDAC-1 Enzyme Assay
# Details: pH 7.5; 23 °C
# Protocol: Recombinant pfHDAC-1 was assayed with substrate in the presence of test compound. […] The reaction was allowed to proceed at room temperature for 15 hrs in sealed plates to minimize evaporation. […] Fluorescence was monitored after 1 hr at excitation and emission wavelengths of 360 and 460 nm, respectively. Kinetic constants were calculated by non-linear regression fitting of the data to the Michaelis-Menten equation. Kinetic and inhibition values reported are the mean of three determinations +/- standard deviation.
row,SMILES,IC50 [nM]
1,"O=C(CCCCCCC(=O)NN=Cc1cc(O)ccc1O)NO [benzylidenehydrazine derivative, 9]",110
2,"O=C(CCCCCC(=O)NN=Cc1cc2c(cc1Br)OCO2)NO [benzylidenehydrazine derivative, 10]",20
3,"O=C(CCCCCCC(=O)NN=Cc1c(O)cc(O)cc1O)NO [benzylidenehydrazine derivative, 11]",43
4,"COc1ccc(Br)c(C=NNC(=O)CCCCCC(=O)NO)c1 [benzylidenehydrazine derivative, 12]",22
5,"O=C(CCCCCC(=O)NN=Cc1cc(O)ccc1Br)NO [benzylidenehydrazine derivative, 15]",49
6,"COc1cc(C=NNC(=O)CCCCCC(=O)NO)c(Br)cc1O [benzylidenehydrazine derivative, 17]",59
7,"O=C(CCCCCC(=O)NN=Cc1cccnc1Br)NO [benzylidenehydrazine derivative, 20]",36
8,"O=C(CCCCC(=O)NN=Cc1ccc(O)cc1Br)NO [benzylidenehydrazine derivative, 21]",106
9,"O=C(CCCCC(=O)NN=Cc1cc(O)ccc1Br)NO [benzylidenehydrazine derivative, 22]",89
10,"COc1cc(C=NNC(=O)CCCCC(=O)NO)c(Br)cc1O [benzylidenehydrazine derivative, 23]",59

# The next lines start with the values.
row,IC50 [nM],SMILES
1,> 10000,"O=C1CCc2c(ccc3ccccc23)O1 [1,2-Dihydro-3H-naphtho[2,1-b]pyran-3-one]"
2,59,"O=C(CCCCCC(=O)NN=Cc1cccc(O)c1)NO [benzylidenehydrazine derivative, 8]"
3,37,"CN(C)c1ccc(C=NNC(=O)CCCCCC(=O)NO)c(O)c1 [benzylidenehydrazine derivative, 13]"
4,41,"O=C(CCCCCC(=O)NN=Cc1c(O)ccc2ccccc12)NO [benzylidenehydrazine derivative, 14]"
5,37,"O=C(CCCCCC(=O)NN=Cc1ccccc1Br)NO [benzylidenehydrazine derivative, 16]"
6,90,"O=C(CCCCCC(=O)NN=Cc1ccccc1Cl)NO [benzylidenehydrazine derivative, 18]"
7,15,"O=C(CCCCCC(=O)NN=Cc1ccc(-n2ccnc2)cc1)NO [benzylidenehydrazine derivative, 19]"
8,45,"O=C(CCCCC(=O)NN=Cc1ccc(B(O)O)cc1)NO [benzylidenehydrazine derivative, 24]"

# From BindingDB's records for doi:10.1021/jm801654y (Harvard Medical School, 2009)
